Data on one compound can be found in patent US7670767B1, “Genetic alterations associated with cancer” (The Regents of the University of California, priority 1997, dated 2010).

The subject of test [1] is OVCAR3 cells. The test can be described thus: programmed cell death, fluorescence based measurement of free DNA ends (Apo direct). Also noted: species or system human. How it is done:
This decrease in viability (FIG. 5B) was associated with an increased rate of programmed cell death at 24 (24% vs 51%) and 48 hour (22% vs 52%) as assessed by a fluorescence based measurement of free DNA ends Apo direct, Phoenix Flow Systems.

For test [2], the system named is OVCAR3 cells. Briefly: MTT viability assay. Type of test: cell-based, human.
Experimental: NOE, MC[MUT] or OVCAR3 (as indicated) were starved of serum overnight and then cultured in 0.5% serum. […] Cell proliferation and viability assay was assessed before and after treatment with the PI3-kinase inhibitor LY294002 as follows. Cells were cultured in 96-well plates (15×10^3 cells/well) and serum starved overnight prior to the addition of LY294002 (Calbiochem) at various concentrations. […] For viability assay, cells were incubated with LY294002 as described above for 96 hours. MTT (25 ml of 5 ml/ml in PBS) was added to each well and incubated at 37° C. for 2 hours. Cells were then lysed by addition of 100 ml lysis buffer (20% SDS in 50% N,N-dimethylformamide, pH4.7). The cultures were set at 37° C. overnight and measured by microplate reader at 570 nm wavelength. Percent Maximum was converted from OD570 as indicated above.

`O=c1cc(N2CCOCC2)oc2c(-c3ccccc3)cccc12` [LY294002]: the “rate of programmed cell death” value in test [1] (24 hour, printed as 24% vs 51%) amounted to 51%; in test [1] (48 hour, printed as 22% vs 52%), 52%. In addition, the “times more sensitive to the effect of LY294002 (OVCAR3 vs NOE or MCF10F)” value in test [2] (in serum free media) stood at 100 times; in test [2] (in the presence of 0.5% FCS), 10 times.
